Measurements as given in patent publication EP0989983B1 (SCHERING CORPORATION, priority 1997, dated 1998).
pIC50: −log10 of the molar value. “And” between values parts separate entries of the source, which are not always exact repeats. Equal values may be shown once.

Molecular target: farnesyl protein transferase (Homo sapiens, UniProt P49354+P49356)
Experiment: FPT IC50, inhibition of farnesyl protein transferase, in vitro enzyme assay (procedure of WO 95/10516)
Format: biochemical
Conditions: several values in a cell are repeat determinations, read-out: FPT C50
Procedure: FPT IC50 (inhibition of farnesyl protein transferase, in vitro enzyme assay). and COS Cell IC50 (Cell-Based Assay) were determined following the assay procedures described in WO 95/10516, published April 20, 1995. GGPT IC50 (inhibition of geranylgeranyl protein transferase, in vitro enzyme assay), Cell Mat Assay, and anti-tumor activity (in vivo anti-tumor studies) could be determined by the assay procedures described in WO 95/10516. The disclosure of WO 95/10516 is incorporated herein by reference thereto.

COCC(=O)N1CCN(C2c3ncc(Br)cc3CCc3cc(Cl)cc(Br)c32)CC1C(=O)NCCCN1CCCC1=O (stereo not drawn) [Compound 218]
pIC50: 7.32

O=C(NCCCN1CCCC1=O)C1CN(C2c3ncc(Br)cc3CCc3cc(Cl)cc(Br)c32)CCN1 (stereo not drawn) [Compound 216, 4-(3,10-DIBROMO-8-CHLORO-6,11-DIHYDRO-5H-BENZO[5,6] CYCLOHEPTA[1,2-b]PYRIDIN-11-YL)-N-[3-(2-OXO-1-PYRROLIDINYL)PROPYL]-2-PIPERAZINECARBOXAMIDE]
pIC50: < 6.82

O=C(NCCc1c[nH]cn1)C1CN(C2c3ccc(Cl)cc3CCc3cc(Br)cnc32)CCN1C(=O)NC1CCCCC1 (stereo not drawn) [Compound 227]
pIC50: 8.14 and 8.17
